Results reported in patent publication US20020098186A1, “Use of endothelin inhibitors for treatment or prevention of fibrotic disorders” (priority 1999, published 2002).

Experiments:
[1] = test system: desmin-positive cells (rat hepatic stellate cells); experiment: Desmin staining of liver sections (activated hepatic stellate cells); format: in vivo; conditions: LU-treated animals (data not shown)
[2] = test system: aminoterminal propeptide of procollagen type III (PIIINP); experiment: Serum PIIINP radioimmunoassay in BDO rats; format: in vivo, rat; conditions: LU-treated BDO rats, dose-dependent
Experimental: Female adult wistar rats, average weight 206±19 g, underwent the following microsurgical procedure under an operating microscope (OPMI 6-2, Zeiss, Germany) (B. Gerling, M. Becker, J. Waldschmidt, D. Schuppan (1996). J. Hepatol. 25:79-84; G. Boigk, L. Stroedter, H. Herbst H, et al. (1997). Hepatology 26:643-639.): 1. midline abdominal incision following anaesthesia with 100 mg/kg ketamine-hydroochloride (Ketanest®, Parke-Davis, Germany) and 10 mg/kg 5,6-dihydro-2-(2,6-xylidino)-4H-1,3-thiazine-hydrochloride (Rompun®, Bayer, Germany); 2. dissection of the common bile duct, insertion of a teflon catheter (Abbocath -T 26 G, venisystems, U.S.A.) and placement of a distal complete and a proximal incomplete ligature with 5-0 silk (Permahand , Ethicon, Germany); 3. retrograde injection of sodium-amidotrizoate (Ethibloc®, Ethicon Germany) at a dose of 0.02 ml/100 g body weight; 4. removal of the catheter, closure of the proximal ligature, scission of the bile duct between the ligatures and wound closure. After bile duct occlusion (BDO), animals received normal chow (Altromin®, Lage, Germany) and were allowed free access to water. […] The following therapeutic groups were formed: 1. BDO and LU at 80 mg/kg/d for 6 weeks (BDO 80/1-6:n=20); 2. […]
Standard laboratory parameters were measured by our in-hospital clinical chemical department, using an automated analyser (BM/Hitachi 747). […]

[3] = Tolerability in BDO and sham-operated rats (death, renal toxicity, food consumption, measured parameters); format: in vivo
Experimental: Female adult wistar rats, average weight 206±19 g, underwent the following microsurgical procedure under an operating microscope (OPMI 6-2, Zeiss, Germany) (B. Gerling, M. Becker, J. Waldschmidt, D. Schuppan (1996). J. Hepatol. 25:79-84; G. Boigk, L. Stroedter, H. Herbst H, et al. (1997). Hepatology 26:643-639.): 1. midline abdominal incision following anaesthesia with 100 mg/kg ketamine-hydroochloride (Ketanest®, Parke-Davis, Germany) and 10 mg/kg 5,6-dihydro-2-(2,6-xylidino)-4H-1,3-thiazine-hydrochloride (Rompun®, Bayer, Germany); 2. dissection of the common bile duct, insertion of a teflon catheter (Abbocath -T 26 G, venisystems, U.S.A.) and placement of a distal complete and a proximal incomplete ligature with 5-0 silk (Permahand , Ethicon, Germany); 3. retrograde injection of sodium-amidotrizoate (Ethibloc®, Ethicon Germany) at a dose of 0.02 ml/100 g body weight; 4. removal of the catheter, closure of the proximal ligature, scission of the bile duct between the ligatures and wound closure. After bile duct occlusion (BDO), animals received normal chow (Altromin®, Lage, Germany) and were allowed free access to water. […] The following therapeutic groups were formed: 1. BDO and LU at 80 mg/kg/d for 6 weeks (BDO 80/1-6:n=20); 2. BDO and LU at 80 mg/kg/d from week 4-6 of BDO (BDO 80/4-6:n=20); 3. BDO and LU at 10 mg/kg/d (sham 80/ 1-6:n=10), rats without medication (control: n=10) and bile duct occluded animals without treatment for 6 weeks (BDO: n=20) served as controls.
Early mortality (within 1 h to 3 days) in rats with BDO was due to local infection and amounted to 9%. […] After 6 weeks rats were sacrificed under ketanest(rompun-anaesthesia by puncture of the right ventricle and exsanguination. Heart, liver, spleen and kidneys were weighed, and 1-2 g pieces of the left and the right liver lobes fixed in 4% formalin for histology and hydroxyproline (HYP) determinations.
Rats with sham operation and rats with BDO were fed the oral endothelin A receptor antagonist LU 135252 (LU).
However, liver collagen (both as relative and total liver collagen content), which was increased 6- and 12-fold above normal, resp., in the untreated group with BDO, was reduced by 50-55% in rats on 80 mg LU/kg/d over the 6 weeks of BDO (p<0.001) (FIG. 1). […] Since contrary to the sham-operated rats, LU at 80 mg/kg/d which represents a high dose, caused death dose-dependently due to rental tubular necrosis in 50% and 25% of the two treatment groups, resp., a second experiment with a lower dose (10 mg/kg/d) over 6 weeks of BDO was performed.

[4] = test system: rat secondary biliary liver fibrosis (BDO); experiment: Histological assessment (staging) of liver fibrosis in BDO rats; format: in vivo; conditions: Sham (sham operation with LU 80 mg/kg/d 6 weeks)

Question: What does the source list for `COc1cc(OC)nc(O[C@H](C(=O)O)C(OC)(c2ccccc2)c2ccccc2)n1` [LU]?
Answer: Number of desmin-positive cells in liver sections [1]: significantly reduced; Lowering of serum PIIINP [2]: 20-50%; Death or renal toxicity ([3]; BDO rats, 10 mg/kg/d over 6 weeks): no death or renal toxicity was observed; Death due to renal tubular necrosis (share of treatment group) ([3]; BDO rats, LU 80 mg/kg/d for 6 weeks): 50%; Death due to renal tubular necrosis (share of treatment group) ([3]; BDO rats, LU 80 mg/kg/d from week 4-6): 25%; Food consumption by the animals ([3]; LU mixed with the chow): did not alter food consumption; Measured parameters (body and organ weights, liver collagen, liver histology, clinical chemical values) ([3]; sham-operated rats, LU 80 mg/kg/d for 6 weeks): did not alter any of the measured parameters; Histological assessment of fibrosis: animals at Stage 0 [4]: 10
